Laboratory results taken from patent EP4745137A1 (Gluetacs Therapeutics (Shanghai) Co., Ltd., priority 2023, dated 2025).

Tests used:
Format in all cases: cell-based
Details in all cases: 24 hours of compound treatment, 50 nM and 500 nM tested (concentration behind the class not stated)
IKZF3 = target: T1, IKZF3 (Homo sapiens, UniProt Q96SW2+Q9UKT9); assay: Western-blot assay of substrate protein degradation in hPBMCs, IKZF3
T1 construct: endogenous in cells; host or cells: hPBMCs (Milecell Biotechnologies)

IKZF2 = target: T2, IKZF2 (Homo sapiens, UniProt Q96SW2+Q9UKS7); assay: Western-blot assay of substrate protein degradation in hPBMCs, IKZF2
T2 construct: endogenous in cells; host or cells: hPBMCs (Milecell Biotechnologies)

CK1α = target: T3, CK1α (Homo sapiens, UniProt P48729+Q96SW2); assay: Western-blot assay of substrate protein degradation in hPBMCs, CK1α
T3 construct: endogenous in cells; host or cells: hPBMCs (Milecell Biotechnologies)

WEE1 = target: T4, WEE1 (Homo sapiens, UniProt P30291+Q96SW2); assay: Western-blot assay of substrate protein degradation in hPBMCs, WEE1
T4 construct: endogenous in cells; host or cells: hPBMCs (Milecell Biotechnologies)

IKZF1 = target: T5, IKZF1 (Homo sapiens, UniProt Q13422+Q96SW2); assay: Western-blot assay of substrate protein degradation in hPBMCs, IKZF1
T5 construct: endogenous in cells; host or cells: hPBMCs (Milecell Biotechnologies)

GSPT1 = target: T6, GSPT1 (Homo sapiens, UniProt P15170+Q96SW2); assay: Western-blot assay of substrate protein degradation in hPBMCs, GSPT1
T6 construct: endogenous in cells; host or cells: hPBMCs (Milecell Biotechnologies)
T6 sequence (P15170 whole entry): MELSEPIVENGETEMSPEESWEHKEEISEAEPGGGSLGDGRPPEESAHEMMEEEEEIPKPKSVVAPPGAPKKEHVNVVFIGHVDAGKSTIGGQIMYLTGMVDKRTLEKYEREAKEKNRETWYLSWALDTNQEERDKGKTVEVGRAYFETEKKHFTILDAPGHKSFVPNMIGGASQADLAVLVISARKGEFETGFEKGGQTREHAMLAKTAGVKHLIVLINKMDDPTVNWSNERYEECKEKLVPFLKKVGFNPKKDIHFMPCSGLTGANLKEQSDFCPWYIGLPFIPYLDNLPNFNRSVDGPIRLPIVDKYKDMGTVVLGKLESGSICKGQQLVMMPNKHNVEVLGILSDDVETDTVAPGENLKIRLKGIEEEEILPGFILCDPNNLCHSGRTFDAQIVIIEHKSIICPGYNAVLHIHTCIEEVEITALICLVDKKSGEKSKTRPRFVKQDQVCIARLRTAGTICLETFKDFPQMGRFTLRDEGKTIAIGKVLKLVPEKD
T6 sequence (Q96SW2 whole entry): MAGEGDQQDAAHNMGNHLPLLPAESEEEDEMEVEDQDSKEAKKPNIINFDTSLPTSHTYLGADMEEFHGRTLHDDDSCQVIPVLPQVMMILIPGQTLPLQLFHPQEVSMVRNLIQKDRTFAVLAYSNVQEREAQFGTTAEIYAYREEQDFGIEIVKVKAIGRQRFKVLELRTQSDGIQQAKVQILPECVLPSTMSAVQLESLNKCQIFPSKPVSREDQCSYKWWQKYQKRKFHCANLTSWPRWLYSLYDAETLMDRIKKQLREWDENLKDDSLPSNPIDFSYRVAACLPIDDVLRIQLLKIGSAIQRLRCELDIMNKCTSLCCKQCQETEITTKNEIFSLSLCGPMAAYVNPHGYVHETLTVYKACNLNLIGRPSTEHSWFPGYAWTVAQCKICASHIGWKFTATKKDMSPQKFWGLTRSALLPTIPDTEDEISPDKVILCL
T6 sequence (Q16531 whole entry partner): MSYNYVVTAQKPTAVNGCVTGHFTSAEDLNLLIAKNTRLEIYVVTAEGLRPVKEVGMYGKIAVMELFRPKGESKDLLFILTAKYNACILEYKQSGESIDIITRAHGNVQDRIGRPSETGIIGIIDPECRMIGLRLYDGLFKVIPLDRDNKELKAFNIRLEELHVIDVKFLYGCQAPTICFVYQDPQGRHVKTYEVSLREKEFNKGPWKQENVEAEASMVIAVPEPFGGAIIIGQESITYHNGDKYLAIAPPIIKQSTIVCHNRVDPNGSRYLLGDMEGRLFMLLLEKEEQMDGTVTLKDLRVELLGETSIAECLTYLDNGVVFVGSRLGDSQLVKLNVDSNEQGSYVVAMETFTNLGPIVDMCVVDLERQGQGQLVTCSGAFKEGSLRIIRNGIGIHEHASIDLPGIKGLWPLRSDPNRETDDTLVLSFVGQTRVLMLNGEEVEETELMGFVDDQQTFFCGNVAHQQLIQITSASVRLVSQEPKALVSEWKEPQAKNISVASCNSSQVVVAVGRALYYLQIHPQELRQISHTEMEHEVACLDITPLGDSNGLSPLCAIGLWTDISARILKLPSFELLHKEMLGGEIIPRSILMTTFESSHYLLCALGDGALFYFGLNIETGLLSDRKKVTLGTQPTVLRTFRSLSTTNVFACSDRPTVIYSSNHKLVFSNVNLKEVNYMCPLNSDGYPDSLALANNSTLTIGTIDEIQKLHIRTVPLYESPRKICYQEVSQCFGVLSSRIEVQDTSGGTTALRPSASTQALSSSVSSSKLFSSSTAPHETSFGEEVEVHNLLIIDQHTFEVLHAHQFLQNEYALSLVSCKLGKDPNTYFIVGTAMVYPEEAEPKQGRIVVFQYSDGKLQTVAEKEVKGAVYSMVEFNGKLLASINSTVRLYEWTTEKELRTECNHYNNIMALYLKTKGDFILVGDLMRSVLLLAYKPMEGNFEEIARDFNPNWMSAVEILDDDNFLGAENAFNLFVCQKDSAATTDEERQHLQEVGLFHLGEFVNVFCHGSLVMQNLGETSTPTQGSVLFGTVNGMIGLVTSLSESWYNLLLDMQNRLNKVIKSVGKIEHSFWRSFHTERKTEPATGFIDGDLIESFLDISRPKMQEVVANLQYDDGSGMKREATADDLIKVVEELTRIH

T4 sequence (P30291 whole entry): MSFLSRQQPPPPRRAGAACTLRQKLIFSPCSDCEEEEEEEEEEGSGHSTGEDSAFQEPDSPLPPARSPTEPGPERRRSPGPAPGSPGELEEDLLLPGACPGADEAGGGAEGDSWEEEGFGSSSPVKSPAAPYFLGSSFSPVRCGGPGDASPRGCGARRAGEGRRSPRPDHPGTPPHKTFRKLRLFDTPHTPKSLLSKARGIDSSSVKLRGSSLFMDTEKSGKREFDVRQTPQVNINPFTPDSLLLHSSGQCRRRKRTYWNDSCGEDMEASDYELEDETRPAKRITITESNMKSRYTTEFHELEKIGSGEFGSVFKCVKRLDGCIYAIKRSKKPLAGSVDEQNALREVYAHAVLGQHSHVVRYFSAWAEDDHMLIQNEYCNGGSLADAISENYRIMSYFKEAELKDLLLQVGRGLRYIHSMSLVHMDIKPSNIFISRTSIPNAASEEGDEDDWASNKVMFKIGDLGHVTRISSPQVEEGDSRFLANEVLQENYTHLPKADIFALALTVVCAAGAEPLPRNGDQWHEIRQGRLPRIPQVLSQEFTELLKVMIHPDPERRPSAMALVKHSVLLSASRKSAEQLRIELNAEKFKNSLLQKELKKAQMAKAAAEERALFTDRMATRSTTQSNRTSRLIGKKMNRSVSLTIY
T4 sequence (Q96SW2 whole entry): as the sequence (Q96SW2 whole entry) above
T4 sequence (Q16531 whole entry partner): as the sequence (Q16531 whole entry partner) above
T1 sequence (Q9UKT9 whole entry): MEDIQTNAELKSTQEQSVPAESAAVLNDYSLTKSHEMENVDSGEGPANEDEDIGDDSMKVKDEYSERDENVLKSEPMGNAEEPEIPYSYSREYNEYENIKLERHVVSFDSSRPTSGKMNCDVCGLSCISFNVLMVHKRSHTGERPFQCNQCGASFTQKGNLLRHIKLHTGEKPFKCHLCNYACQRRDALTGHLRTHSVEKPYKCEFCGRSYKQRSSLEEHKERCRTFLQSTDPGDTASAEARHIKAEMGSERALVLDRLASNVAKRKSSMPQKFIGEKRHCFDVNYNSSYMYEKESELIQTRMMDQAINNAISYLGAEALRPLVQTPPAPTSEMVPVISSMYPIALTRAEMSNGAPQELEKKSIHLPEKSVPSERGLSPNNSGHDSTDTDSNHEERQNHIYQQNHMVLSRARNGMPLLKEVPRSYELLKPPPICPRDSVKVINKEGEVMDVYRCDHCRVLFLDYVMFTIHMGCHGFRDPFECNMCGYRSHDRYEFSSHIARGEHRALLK
T1 sequence (Q96SW2 whole entry): as the sequence (Q96SW2 whole entry) above
T1 sequence (Q16531 whole entry partner): as the sequence (Q16531 whole entry partner) above
T2 sequence (Q9UKS7 whole entry): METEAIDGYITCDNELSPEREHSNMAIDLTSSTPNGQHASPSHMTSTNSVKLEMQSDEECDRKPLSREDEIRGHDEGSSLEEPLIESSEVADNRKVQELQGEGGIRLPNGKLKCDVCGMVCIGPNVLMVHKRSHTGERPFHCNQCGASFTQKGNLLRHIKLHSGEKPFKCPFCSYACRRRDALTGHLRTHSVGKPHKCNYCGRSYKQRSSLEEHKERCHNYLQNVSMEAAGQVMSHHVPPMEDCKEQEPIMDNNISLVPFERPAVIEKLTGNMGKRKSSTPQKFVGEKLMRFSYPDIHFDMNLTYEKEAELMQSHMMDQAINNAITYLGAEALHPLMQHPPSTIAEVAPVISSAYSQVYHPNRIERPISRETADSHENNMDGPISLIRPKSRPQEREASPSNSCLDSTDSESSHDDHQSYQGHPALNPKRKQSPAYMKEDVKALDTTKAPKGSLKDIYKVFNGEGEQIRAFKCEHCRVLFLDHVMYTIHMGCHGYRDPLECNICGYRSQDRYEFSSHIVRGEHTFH
T2 sequence (Q96SW2 whole entry): as the sequence (Q96SW2 whole entry) above
T2 sequence (Q16531 whole entry partner): as the sequence (Q16531 whole entry partner) above
T5 sequence (Q13422 whole entry): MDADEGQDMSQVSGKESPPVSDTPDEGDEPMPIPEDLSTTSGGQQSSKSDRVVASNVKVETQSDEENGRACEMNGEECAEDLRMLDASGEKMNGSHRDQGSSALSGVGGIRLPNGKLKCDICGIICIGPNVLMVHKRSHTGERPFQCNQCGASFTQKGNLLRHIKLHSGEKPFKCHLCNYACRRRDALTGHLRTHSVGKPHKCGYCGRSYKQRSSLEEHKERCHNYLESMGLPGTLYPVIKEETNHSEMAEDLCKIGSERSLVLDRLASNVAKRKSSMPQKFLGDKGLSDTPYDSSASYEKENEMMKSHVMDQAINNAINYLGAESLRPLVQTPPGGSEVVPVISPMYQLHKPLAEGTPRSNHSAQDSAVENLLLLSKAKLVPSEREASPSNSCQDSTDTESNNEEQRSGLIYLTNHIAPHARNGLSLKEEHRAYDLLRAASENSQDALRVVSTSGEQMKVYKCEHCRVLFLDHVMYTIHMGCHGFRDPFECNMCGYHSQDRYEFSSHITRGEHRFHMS
T5 sequence (Q96SW2 whole entry): as the sequence (Q96SW2 whole entry) above
T5 sequence (Q16531 whole entry partner): as the sequence (Q16531 whole entry partner) above

SMILES	IKZF3 substrate protein remaining % (IKZF3)	IKZF2 substrate protein remaining % (IKZF2)	CK1a substrate protein remaining % (CK1α)	Weel substrate protein remaining % (WEE1)	IKZF 1 substrate protein remaining % (IKZF1)	GSPT1 substrate protein remaining % (GSPT1)
O=C1CCC(N2C(=O)c3ccc(CN4CCN(c5cccc(F)c5)CC4)cc3C2=O)C(=O)N1 (stereo not drawn) [GT-06291, 2-(2,6-dioxopiperidin-3-yl)-5-((4-(3-fluorophenyl)piperazin-1-yl)methyl)isoindoline-1,3-dione]	B (80%< substrate protein remaining %≤ 100%)	B (80%< substrate protein remaining %≤ 100%)	B (80%< substrate protein remaining %≤ 100%)	B (80%< substrate protein remaining %≤ 100%)	B (80%< substrate protein remaining %≤ 100%)	A (0% ≤ substrate protein remaining % ≤ 80%)
O=C1CCC(N2C(=O)c3ccc(CN4CCN(c5ccc(F)cc5)CC4)cc3C2=O)C(=O)N1 (stereo not drawn) [GT-06292, 2-(2,6-dioxopiperidin-3-yl)-5-((4-(4-fluorophenyl)piperazin-1-yl)methyl)isoindoline-1,3-dione]	B (80%< substrate protein remaining %≤ 100%)	B (80%< substrate protein remaining %≤ 100%)	B (80%< substrate protein remaining %≤ 100%)	B (80%< substrate protein remaining %≤ 100%)	B (80%< substrate protein remaining %≤ 100%)	A (0% ≤ substrate protein remaining % ≤ 80%)
O=C1CCC(N2C(=O)c3ccc(CN4CCN(c5ccccc5Br)CC4)cc3C2=O)C(=O)N1 (stereo not drawn) [GT-06293, 5-((4-(2-bromophenyl)piperazin-1-yl)methyl)-2-(2,6-dioxopiperidin-3-yl)isoindoline-1,3-dione]	B (80%< substrate protein remaining %≤ 100%)	B (80%< substrate protein remaining %≤ 100%)	B (80%< substrate protein remaining %≤ 100%)	B (80%< substrate protein remaining %≤ 100%)	B (80%< substrate protein remaining %≤ 100%)	A (0% ≤ substrate protein remaining % ≤ 80%)
O=C1CCC(N2C(=O)c3ccc(CN4CCN(c5ccc(Br)cc5)CC4)cc3C2=O)C(=O)N1 (stereo not drawn) [GT-06295, 5-((4-(4-bromophenyl)piperazin-1-yl)methyl)-2-(2,6-dioxopiperidin-3-yl)isoindoline-1,3-dione]	B (80%< substrate protein remaining %≤ 100%)	B (80%< substrate protein remaining %≤ 100%)	B (80%< substrate protein remaining %≤ 100%)	B (80%< substrate protein remaining %≤ 100%)	B (80%< substrate protein remaining %≤ 100%)	A (0% ≤ substrate protein remaining % ≤ 80%)
Cc1ccccc1N1CCN(Cc2ccc3c(c2)C(=O)N(C2CCC(=O)NC2=O)C3=O)CC1 (stereo not drawn) [GT-06296, 2-(2,6-dioxopiperidin-3-yl)-5-((4-(o-tolyl)piperazin-1-yl)methyl)isoindoline-1,3-dione]	B (80%< substrate protein remaining %≤ 100%)	B (80%< substrate protein remaining %≤ 100%)	B (80%< substrate protein remaining %≤ 100%)	B (80%< substrate protein remaining %≤ 100%)	B (80%< substrate protein remaining %≤ 100%)	A (0% ≤ substrate protein remaining % ≤ 80%)
O=C1CCC(N2C(=O)c3ccc(CN4CCN(c5c(Cl)cccc5Cl)CC4)cc3C2=O)C(=O)N1 (stereo not drawn) [GT-06297, 5-((4-(2,6-dichlorophenyl)piperazin-1-yl)methyl)-2-(2,6-dioxopiperidin-3-yl)isoindoline-1,3-dione]	B (80%< substrate protein remaining %≤ 100%)	B (80%< substrate protein remaining %≤ 100%)	B (80%< substrate protein remaining %≤ 100%)	B (80%< substrate protein remaining %≤ 100%)	B (80%< substrate protein remaining %≤ 100%)	A (0% ≤ substrate protein remaining % ≤ 80%)
O=C1CCC(N2C(=O)c3ccc(CN4CCN(c5ccc(Cl)c(Cl)c5)CC4)cc3C2=O)C(=O)N1 (stereo not drawn) [GT-06298, 5-((4-(3,4-dichlorophenyl)piperazin-1-yl)methyl)-2-(2,6-dioxopiperidin-3-yl)isoindoline-1,3-dione]	B (80%< substrate protein remaining %≤ 100%)	B (80%< substrate protein remaining %≤ 100%)	B (80%< substrate protein remaining %≤ 100%)	B (80%< substrate protein remaining %≤ 100%)	B (80%< substrate protein remaining %≤ 100%)	A (0% ≤ substrate protein remaining % ≤ 80%)
O=C1CCC(N2C(=O)c3ccc(CN4CCN(c5cc(Cl)cc(Cl)c5)CC4)cc3C2=O)C(=O)N1 (stereo not drawn) [GT-06299, 5-((4-(3,5-dichlorophenyl)piperazin-1-yl)methyl)-2-(2,6-dioxopiperidin-3-yl)isoindoline-1,3-dione]	B (80%< substrate protein remaining %≤ 100%)	B (80%< substrate protein remaining %≤ 100%)	B (80%< substrate protein remaining %≤ 100%)	B (80%< substrate protein remaining %≤ 100%)	B (80%< substrate protein remaining %≤ 100%)	A (0% ≤ substrate protein remaining % ≤ 80%)
O=C1CCC(N2C(=O)c3ccc(CN4CCN(c5cccc(F)c5F)CC4)cc3C2=O)C(=O)N1 (stereo not drawn) [GT-06300, 5-((4-(2,3-difluorophenyl)piperazin-1-yl)methyl)-2-(2,6-dioxopiperidin-3-yl)isoindoline-1,3-dione]	B (80%< substrate protein remaining %≤ 100%)	B (80%< substrate protein remaining %≤ 100%)	B (80%< substrate protein remaining %≤ 100%)	B (80%< substrate protein remaining %≤ 100%)	B (80%< substrate protein remaining %≤ 100%)	A (0% ≤ substrate protein remaining % ≤ 80%)
O=C1CCC(N2C(=O)c3ccc(CN4CCN(c5ncnc6sccc56)CC4)cc3C2=O)C(=O)N1 (stereo not drawn) [GT-06303, 2-(2,6-dioxopiperidin-3-yl)-5-((4-(thieno[2,3-d]pyrimidin-4-yl)piperazin-1-yl)methyl)isoindoline-1,3-dione]	B (80%< substrate protein remaining %≤ 100%)	B (80%< substrate protein remaining %≤ 100%)	B (80%< substrate protein remaining %≤ 100%)	B (80%< substrate protein remaining %≤ 100%)	A (0% ≤ substrate protein remaining % ≤ 80%)	B (80%< substrate protein remaining %≤ 100%)
Cc1cc2c(N3CCN(Cc4ccc5c(c4)C(=O)N(C4CCC(=O)NC4=O)C5=O)CC3)ncnc2s1 (stereo not drawn) [GT-06305, 2-(2,6-dioxopiperidin-3-yl)-5-((4-(6-methylthieno[2,3-d]pyrimidin-4-yl)piperazin-1-yl)methyl)isoindoline-1,3-dione]	B (80%< substrate protein remaining %≤ 100%)	B (80%< substrate protein remaining %≤ 100%)	A (0% ≤ substrate protein remaining % ≤ 80%)	B (80%< substrate protein remaining %≤ 100%)	B (80%< substrate protein remaining %≤ 100%)	B (80%< substrate protein remaining %≤ 100%)
Cc1sc2ncnc(N3CCN(Cc4ccc5c(c4)C(=O)N(C4CCC(=O)NC4=O)C5=O)CC3)c2c1C (stereo not drawn) [GT-06307, 5-((4-(5,6-dimethylthieno[2,3-d]pyrimidin-4-yl)piperazin-1-yl)methyl)-2-(2,6-dioxopiperidin-3-yl)isoindoline-1,3-dione]	B (80%< substrate protein remaining %≤ 100%)	A (0% ≤ substrate protein remaining % ≤ 80%)	A (0% ≤ substrate protein remaining % ≤ 80%)	B (80%< substrate protein remaining %≤ 100%)	A (0% ≤ substrate protein remaining % ≤ 80%)	A (0% ≤ substrate protein remaining % ≤ 80%)
Cc1sc2ncnc(N3CCCN(Cc4ccc5c(c4)C(=O)N(C4CCC(=O)NC4=O)C5=O)CC3)c2c1C (stereo not drawn) [GT-06308, 5-((4-(5,6-dimethylthieno[2,3-d]pyrimidin-4-yl)-1,4-diazepan-1-yl)methyl)-2-(2,6-dioxopiperidin-3-yl)isoindoline-1,3-dione]	B (80%< substrate protein remaining %≤ 100%)	A (0% ≤ substrate protein remaining % ≤ 80%)	B (80%< substrate protein remaining %≤ 100%)	B (80%< substrate protein remaining %≤ 100%)	A (0% ≤ substrate protein remaining % ≤ 80%)	B (80%< substrate protein remaining %≤ 100%)
